Results published in publication PMC12446476 (Nature Communications, 2025).
Values after ≈ are worked out from the molar mass of the structure shown. Read-outs that look alike come from different tables or passages of the source.

Test system: non-gonococcal Neisseria
Assay: MIC determination for non-gonococcal Neisseria, agar dilution
Assay type: cell-based, Neisseria species
Conditions: read-out: Minimum inhibitory concentration
From the text: The 2024 WHO N. gonorrhoeae reference strains were used for quality control. Only whole MIC doubling dilutions are reported. Clinical breakpoints or the epidemiological cutoff (ECOFF, to indicate azithromycin resistance) from EUCAST (v14.0, https://www.eucast.org/clinical_breakpoints) were used to classify isolates as antimicrobial susceptible or resistant. […] Two times the standard inoculum defined by CLSI was used to establish consistent growth in untreated control samples for some strains. In vitro time-kill assays were performed according to CLSI guidelines[65] using Columbia Broth (BD Difco) supplemented with 1% IsoVitaleX Enrichment (BD). Viable bacterial counts were generated by plating 10-fold serially diluted samples on GC agar plates containing 1% IsoVitaleX Enrichment (BD).

Cc1c(CN(C)C(=O)/C=C/c2cnc3c(c2)N[C@H](C)[C@H](O)C(=O)N3)oc2ccccc12 [Debio 1453]
MIC (Neisseria animalis 1, Consensus): 0.25 µg/mL (≈ 0.595 µM) | MIC (Neisseria animalis 1, Replicate 1): 0.25 µg/mL (≈ 0.595 µM) | MIC (Neisseria animalis 1, Replicate 2): 0.25 µg/mL (≈ 0.595 µM) | MIC (Neisseria animalis 1, Replicate 3): 0.25 µg/mL (≈ 0.595 µM) | MIC (Neisseria cinerea 1, Consensus): 0.032 µg/mL (≈ 0.0761 µM) | MIC (Neisseria cinerea 1, Replicate 1): 0.032 µg/mL (≈ 0.0761 µM) | MIC (Neisseria cinerea 1, Replicate 2): 0.032 µg/mL (≈ 0.0761 µM) | MIC (Neisseria cinerea 1, Replicate 3): 0.032 µg/mL (≈ 0.0761 µM) | MIC (Neisseria cinerea 2, Consensus): 0.25 µg/mL (≈ 0.595 µM) | MIC (Neisseria cinerea 2, Replicate 1): 0.25 µg/mL (≈ 0.595 µM) | MIC (Neisseria cinerea 2, Replicate 2): 0.25 µg/mL (≈ 0.595 µM) | MIC (Neisseria cinerea 2, Replicate 3): 0.25 µg/mL (≈ 0.595 µM) | MIC (Neisseria cinerea 3, Consensus): 0.008 µg/mL (≈ 0.019 µM) | MIC (Neisseria cinerea 3, Replicate 1): 0.008 µg/mL (≈ 0.019 µM) | MIC (Neisseria cinerea 3, Replicate 2): 0.016 µg/mL (≈ 0.0381 µM) | MIC (Neisseria cinerea 3, Replicate 3): 0.008 µg/mL (≈ 0.019 µM) | MIC (Neisseria cinerea 6, Consensus): 0.016 µg/mL (≈ 0.0381 µM) | MIC (Neisseria cinerea 6, Replicate 1): 0.032 µg/mL (≈ 0.0761 µM) | MIC (Neisseria cinerea 6, Replicate 2): 0.016 µg/mL (≈ 0.0381 µM) | MIC (Neisseria cinerea 6, Replicate 3): 0.016 µg/mL (≈ 0.0381 µM) | MIC (Neisseria cinerea 7, Consensus): 0.5 µg/mL (≈ 1.19 µM) | MIC (Neisseria cinerea 7, Replicate 1): 0.5 µg/mL (≈ 1.19 µM) | MIC (Neisseria cinerea 7, Replicate 2): 0.5 µg/mL (≈ 1.19 µM) | MIC (Neisseria cinerea 7, Replicate 3): 0.5 µg/mL (≈ 1.19 µM) | MIC (Neisseria cinerea 8, Replicate 1): 0.25 µg/mL (≈ 0.595 µM) | MIC (Neisseria cinerea 9, Consensus): 0.5 µg/mL (≈ 1.19 µM) | MIC (Neisseria cinerea 9, Replicate 1): 0.5 µg/mL (≈ 1.19 µM) | MIC (Neisseria cinerea 9, Replicate 2): 0.5 µg/mL (≈ 1.19 µM) | MIC (Neisseria cinerea 9, Replicate 3): 0.5 µg/mL (≈ 1.19 µM) | MIC (Neisseria elongata 2, Consensus): 2 µg/mL (≈ 4.76 µM) | MIC (Neisseria elongata 2, Replicate 1): 2 µg/mL (≈ 4.76 µM) | MIC (Neisseria elongata 2, Replicate 2): 2 µg/mL (≈ 4.76 µM) | MIC (Neisseria elongata 2, Replicate 3): 2 µg/mL (≈ 4.76 µM) | MIC (Neisseria elongata 3, Consensus): 1 µg/mL (≈ 2.38 µM) | MIC (Neisseria elongata 3, Replicate 1): 1 µg/mL (≈ 2.38 µM) | MIC (Neisseria elongata 3, Replicate 2): 1 µg/mL (≈ 2.38 µM) | MIC (Neisseria elongata 3, Replicate 3): 1 µg/mL (≈ 2.38 µM) | MIC (Neisseria flava 1, Replicate 2): 0.064 µg/mL (≈ 0.152 µM) | MIC (Neisseria flavescens 1, Consensus): 0.016 µg/mL (≈ 0.0381 µM) | MIC (Neisseria flavescens 1, Replicate 1): 0.032 µg/mL (≈ 0.0761 µM) | MIC (Neisseria flavescens 1, Replicate 2): 0.016 µg/mL (≈ 0.0381 µM) | MIC (Neisseria flavescens 1, Replicate 3): 0.016 µg/mL (≈ 0.0381 µM) | MIC (Neisseria flavescens 2, Replicate 2): 0.25 µg/mL (≈ 0.595 µM) | MIC (Neisseria flavescens 3, Consensus): 0.25 µg/mL (≈ 0.595 µM) | MIC (Neisseria flavescens 3, Replicate 1): 0.25 µg/mL (≈ 0.595 µM) | MIC (Neisseria flavescens 3, Replicate 2): 0.25 µg/mL (≈ 0.595 µM) | MIC (Neisseria flavescens 3, Replicate 3): 0.25 µg/mL (≈ 0.595 µM) | MIC (Neisseria flavescens 4, Consensus): 0.5 µg/mL (≈ 1.19 µM) | MIC (Neisseria flavescens 4, Replicate 1): 0.25 µg/mL (≈ 0.595 µM) | MIC (Neisseria flavescens 4, Replicate 2): 0.5 µg/mL (≈ 1.19 µM) | MIC (Neisseria flavescens 4, Replicate 3): 0.5 µg/mL (≈ 1.19 µM) | MIC (Neisseria flavescens 5, Consensus): 0.5 µg/mL (≈ 1.19 µM) | MIC (Neisseria flavescens 5, Replicate 1): 0.25 µg/mL (≈ 0.595 µM) | MIC (Neisseria flavescens 5, Replicate 2): 1 µg/mL (≈ 2.38 µM) | MIC (Neisseria flavescens 5, Replicate 3): 0.5 µg/mL (≈ 1.19 µM) | MIC (Neisseria flavescens 6, Consensus): 0.064 µg/mL (≈ 0.152 µM) | MIC (Neisseria flavescens 6, Replicate 1): 0.064 µg/mL (≈ 0.152 µM) | MIC (Neisseria flavescens 6, Replicate 2): 0.064 µg/mL (≈ 0.152 µM) | MIC (Neisseria flavescens 6, Replicate 3): 0.064 µg/mL (≈ 0.152 µM) | MIC (Neisseria flavescens 7, Consensus): 0.5 µg/mL (≈ 1.19 µM) | MIC (Neisseria flavescens 7, Replicate 1): 0.5 µg/mL (≈ 1.19 µM) | MIC (Neisseria flavescens 7, Replicate 2): 0.5 µg/mL (≈ 1.19 µM) | MIC (Neisseria flavescens 7, Replicate 3): 1 µg/mL (≈ 2.38 µM) | MIC (Neisseria flavescens 8, Replicate 1): 0.064 µg/mL (≈ 0.152 µM) | MIC (Neisseria flavescens 9, Consensus): 1 µg/mL (≈ 2.38 µM) | MIC (Neisseria flavescens 9, Replicate 1): 1 µg/mL (≈ 2.38 µM) | MIC (Neisseria flavescens 9, Replicate 2): 1 µg/mL (≈ 2.38 µM) | MIC (Neisseria flavescens 9, Replicate 3): 1 µg/mL (≈ 2.38 µM) | MIC (Neisseria flavescens 10, Replicate 2): 0.25 µg/mL (≈ 0.595 µM) | MIC (Neisseria flavescens 11, Consensus): 0.5 µg/mL (≈ 1.19 µM) | MIC (Neisseria flavescens 11, Replicate 1): 0.5 µg/mL (≈ 1.19 µM) | MIC (Neisseria flavescens 11, Replicate 2): 1 µg/mL (≈ 2.38 µM) | MIC (Neisseria flavescens 11, Replicate 3): 0.5 µg/mL (≈ 1.19 µM) | MIC (Neisseria flavescens 12, Consensus): 0.064 µg/mL (≈ 0.152 µM) | MIC (Neisseria flavescens 12, Replicate 1): 0.064 µg/mL (≈ 0.152 µM) | MIC (Neisseria flavescens 12, Replicate 2): 0.064 µg/mL (≈ 0.152 µM) | MIC (Neisseria flavescens 13, Consensus): 1 µg/mL (≈ 2.38 µM) | MIC (Neisseria flavescens 13, Replicate 1): 1 µg/mL (≈ 2.38 µM) | MIC (Neisseria flavescens 13, Replicate 2): 1 µg/mL (≈ 2.38 µM) | MIC (Neisseria flavescens 13, Replicate 3): 1 µg/mL (≈ 2.38 µM) | MIC (Neisseria flavescens 14, Consensus): 1 µg/mL (≈ 2.38 µM) | MIC (Neisseria flavescens 14, Replicate 1): 1 µg/mL (≈ 2.38 µM) | MIC (Neisseria flavescens 14, Replicate 2): 1 µg/mL (≈ 2.38 µM) | MIC (Neisseria flavescens 14, Replicate 3): 1 µg/mL (≈ 2.38 µM) | MIC (Neisseria flavescens 15, Consensus): 1 µg/mL (≈ 2.38 µM) | MIC (Neisseria flavescens 15, Replicate 1): 1 µg/mL (≈ 2.38 µM) | MIC (Neisseria flavescens 15, Replicate 2): 1 µg/mL (≈ 2.38 µM) | MIC (Neisseria flavescens 15, Replicate 3): 1 µg/mL (≈ 2.38 µM) | MIC (Neisseria flavescens 16, Consensus): 0.25 µg/mL (≈ 0.595 µM) | MIC (Neisseria flavescens 16, Replicate 1): 0.25 µg/mL (≈ 0.595 µM) | MIC (Neisseria flavescens 16, Replicate 2): 0.25 µg/mL (≈ 0.595 µM) | MIC (Neisseria flavescens 16, Replicate 3): 0.25 µg/mL (≈ 0.595 µM) | MIC (Neisseria flavescens 17, Consensus): 1 µg/mL (≈ 2.38 µM) | MIC (Neisseria flavescens 17, Replicate 1): 1 µg/mL (≈ 2.38 µM) | MIC (Neisseria flavescens 17, Replicate 2): 0.5 µg/mL (≈ 1.19 µM) | MIC (Neisseria flavescens 17, Replicate 3): 1 µg/mL (≈ 2.38 µM) | MIC (Neisseria gonorrhoeae subspecies kochii 1, Consensus): 0.016 µg/mL (≈ 0.0381 µM) | MIC (Neisseria gonorrhoeae subspecies kochii 1, Replicate 1): 0.032 µg/mL (≈ 0.0761 µM) | MIC (Neisseria gonorrhoeae subspecies kochii 1, Replicate 2): 0.016 µg/mL (≈ 0.0381 µM) | MIC (Neisseria gonorrhoeae subspecies kochii 1, Replicate 3): 0.016 µg/mL (≈ 0.0381 µM) | MIC (Neisseria gonorrhoeae subspecies kochii 2, Consensus): 0.008 µg/mL (≈ 0.019 µM) | MIC (Neisseria gonorrhoeae subspecies kochii 2, Replicate 1): 0.008 µg/mL (≈ 0.019 µM) | MIC (Neisseria gonorrhoeae subspecies kochii 2, Replicate 2): 0.008 µg/mL (≈ 0.019 µM) | MIC (Neisseria gonorrhoeae subspecies kochii 2, Replicate 3): 0.008 µg/mL (≈ 0.019 µM) | MIC (Neisseria gonorrhoeae subspecies kochii 3, Consensus): 0.008 µg/mL (≈ 0.019 µM) | MIC (Neisseria gonorrhoeae subspecies kochii 3, Replicate 1): 0.008 µg/mL (≈ 0.019 µM) | MIC (Neisseria gonorrhoeae subspecies kochii 3, Replicate 2): 0.008 µg/mL (≈ 0.019 µM) | MIC (Neisseria gonorrhoeae subspecies kochii 3, Replicate 3): 0.008 µg/mL (≈ 0.019 µM) | MIC (Neisseria lactamica 1, Consensus): 0.032 µg/mL (≈ 0.0761 µM) | MIC (Neisseria lactamica 1, Replicate 1): 0.032 µg/mL (≈ 0.0761 µM) | MIC (Neisseria lactamica 1, Replicate 2): 0.064 µg/mL (≈ 0.152 µM)
